Reference: patent US3932407A, “Optionally substituted 1,2,3,5-tetrahydroimidezo(2,1-b)-quinazolin-2-ones and 6(H)-1,2,3,4-tetrahydropyimido(2,1-b)quinazolin-2-ones” (Bristol-Myers Company, priority 1974, dated 1976)
In brackets after ≈: the same amount, converted by molar mass.

Key:
blood pressure = assay: Blood pressure of genetically hypertensive rats, P.O. 50 mg/kg; type: in vivo; conditions: 50 mg./kg. orally, tested as hydrochloride salts, + increase, - decrease in b.p.; for change in vivo at 50 mg/kg: Rattus norvegicus, po
Procedure: The blood pressure of unanesthetized rats and dogs was measured directly by means of a transducer attached to an intra-arterial cannula and in anesthetized dogs by a mercury manometer attached to a carotid cannula.
The compounds of the instant invention were tested as the hydrochloride salts by the above method in genetically hypertensive rats in doses of 50 mg./kg. orally.

[1] = tested on: adenosine diphosphate (ADP) induced platelet aggregation; assay: In vitro inhibition of ADP induced platelet aggregation (aggregometer method of Born, modified); type: cell-based; conditions: Oryctolagus cuniculus; rabbit platelet rich plasma, ADP 0.5 mcg./ml.
Procedure: (§1) The aggregometer method of Born (1), as modified by Mustard et al. (2) was used to assess the in vitro activity of the various compounds as to inhibition of adenosine diphosphate (ADP) and collagen induced platelet aggregation. Platelet rich plasma was separated by centrifugation from citrated (3.8 percent) rabbit blood. ADP in final concentration of 0.5 mcg./ml. or 0.05 ml. of a collagen suspension prepared according to the method described by Evans et al. (3) was used to induce aggregation. The various compounds tested were dissolved in dimethylsulfoxide (DMSO) so that 5 mcl. added to the platelet rich plasma would yield the desired test concentration. Vehicle control trials were done and compared with aggregation induced in platelet rich plasma containing various concentrations of the test compounds. Dose response curves were obtained and Effective Concentration (EC50) values calculated.
(§2) 2. mustard, J. F., Hegardt, B. Rowsell, H. C. and MacMillan, R. L., J. Lab. Clin. Med. 64, 548 (1964).

[2] = tested on: collagen induced platelet aggregation; assay: In vitro inhibition of collagen induced platelet aggregation (aggregometer method of Born, modified); type: cell-based; conditions: Oryctolagus cuniculus; rabbit platelet rich plasma, 0.05 ml. collagen suspension
Procedure: as §1, §2
3. Evans, G. Marian M. C., Packham, M. A., Nishizawa, E. E., Mustard, J. F. and Murphy, E. A., J. Exp. Med., 128, 877 (1968).

[3] = tested on: ADP induced platelet aggregation; assay: In vivo/in vitro ADP induced platelet aggregation after I.P. dosing of rabbits; design: species or system rabbit; conditions: Oryctolagus cuniculus, ip, 1 to 2 hours after dosing, dose for 50% inhibition of aggregation
Procedure: (§3) *In vivo/In vitro testing:
(§4) Before dosing the animals, blood samples are taken. The blood is centrifuged to obtain the blood platelet-rich plasma. Aggregation of this plasma is induced with ADP or collagen. This is the control.
(§5) The animals are then dosed with the compounds to be tested (orally or parenterally). Depending upon the route of administration, 1 to 2 hours are allowed to elapse after dosing. Blood is drawn and the same procedure employed as for the control in untreated animals.
The dose required to produce 50% inhibition of the aggregation is determined by dose response data obtained in this manner.

[4] = tested on: ADP induced platelet aggregation; assay: In vivo/in vitro ADP induced platelet aggregation after P.O. dosing of dogs; design: species or system dog; conditions: 1 to 2 hours after dosing
Procedure: as §3, §4, §5

EC50 [1] | EC50 [2] | SMILES | change in vivo at 50 mg/kg (blood pressure) | ED50 [3] | In Vivo/In Vitro Dogs P.O. 5 mg./kg. ADP % Inhibition [4] | Blood Pressure % Change Rats P.O. 50 mg./kg. (blood pressure)
 |  | COc1cccc2c1N=C1NC(=O)CCN1C2 [Compound 27] | 1% |  |  | 
0.5 µg/mL (≈ 2.26 µM) | 0.2 µg/mL (≈ 0.902 µM) | O=C1CN2Cc3cc(Cl)ccc3N=C2N1 [Compound 3] | -4 ± 5% | > 10 mg/kg |  | 
6 µg/mL (≈ 32.1 µM) | 2 µg/mL (≈ 10.7 µM) | O=C1CN2Cc3ccccc3N=C2N1 [Compound 1, 1,2,3,5-tetrahydroimidazo [2,1-b]-quinazolin-2-one] | -36 ± 6% | > 72 mg/kg |  | 
5 µg/mL (≈ 20.2 µM) |  | COc1cc2c(cc1OC)N=C1NC(=O)CN1C2 [Compound 17] | 26% | 4 mg/kg | 0% | 
2 µg/mL (≈ 8.65 µM) | 0.4 µg/mL (≈ 1.73 µM) | COc1cccc2c1CN1CCC(=O)NC1=N2 [Compound 25] | -5 ± 3% | 8 mg/kg |  | 
50 µg/mL (≈ 247 µM) | 6 µg/mL (≈ 29.7 µM) | Nc1ccc2c(c1)CN1CC(=O)NC1=N2 [Compound 9, 7-Amino-1,2,3,5-tetrahydroimidazo-[2,1-b]quinazolin-2-one] | -10 ± 14% |  |  | 
0.7 µg/mL (≈ 3.03 µM) | 0.07 µg/mL (≈ 0.303 µM) | O=C1CN2Cc3cc4c(cc3N=C2N1)OCO4 [Compound 18] | -25 ± 12% | > 50 mg/kg |  | 
6 µg/mL (≈ 25.5 µM) | 0.7 µg/mL (≈ 2.97 µM) | O=C1CCN2Cc3c(Cl)cccc3N=C2N1 [Compound 20] | -12 ± 1% | 8 mg/kg |  | 
 |  | O=C1CN2Cc3c(ccc4ccccc34)N=C2N1 [Compound 39] | -59% |  |  | 
6 µg/mL (≈ 27.1 µM) | 1.5 µg/mL (≈ 6.77 µM) | O=C1CN2Cc3ccc(Cl)cc3N=C2N1 [Compound 4] | -14% | 18 mg/kg |  | 
0.09 µg/mL (≈ 0.382 µM) | 0.012 µg/mL (≈ 0.0509 µM) | Cc1c(Cl)ccc2c1CN1CC(=O)NC1=N2 [Compound 45, 7-Chloro-6-methyl-1,2,3,5-tetrahydroimidazo[2,1-b]quinazolin-2-one] |  |  | 46 ±8% | 
 |  | COc1cccc2c1N=C1NC(=O)CN1C2 [Compound 15] | -16 ± 3% |  |  | 
0.5 µg/mL (≈ 2.48 µM) | 0.1 µg/mL (≈ 0.497 µM) | Cc1cccc2c1CN1CC(=O)NC1=N2 [Compound 10, 6-methyl-1,2,3,5-tetrahydroimidazo-[2,1-b]quinazolin-2-one] | -37 ± 8% | 0.6 mg/kg | 76% | 
4 µg/mL (≈ 19.9 µM) | 3 µg/mL (≈ 14.9 µM) | Cc1cccc2c1N=C1NC(=O)CN1C2 [Compound 12] | -22 ± 10% | > 10 mg/kg |  | 
2 µg/mL (≈ 9.94 µM) | 0.3 µg/mL (≈ 1.49 µM) | Cc1ccc2c(c1)CN1CC(=O)NC1=N2 [Compound 11] |  | > 10 mg/kg |  | 
0.4 µg/mL (≈ 1.5 µM) | 0.2 µg/mL (≈ 0.752 µM) | O=C1CN2Cc3cc(Br)ccc3N=C2N1 [Compound 6, 7-Bromo-1,2,3,5-tetrahydroimidazo[2,1-b]-quinazolin-2-one] | -8 ± 3% | 5 mg/kg |  | 
1 µg/mL (≈ 4.6 µM) | 0.2 µg/mL (≈ 0.921 µM) | COc1ccc2c(c1)CN1CC(=O)NC1=N2 [Compound 14, 7-methoxy-1,2,3,5-tetrahydroimidazo[2,1-b]quinazolin-2-one] | -19 ± 4% | 4 mg/kg | 17% | 

EC50 [1] | EC50 [2] | SMILES | change in vivo at 50 mg/kg (blood pressure) | ED50 [3] | In Vivo/In Vitro Dogs P.O. 5 mg./kg. ADP % Inhibition [4] | Blood Pressure % Change Rats P.O. 50 mg./kg. (blood pressure)
1 µg/mL (≈ 4.51 µM) | 0.02 µg/mL (≈ 0.0902 µM) | O=C1CN2Cc3c(Cl)cccc3N=C2N1 [Compound 2, 6-chloro-1,2,3,5-tetrahydroimidazo[2,1-b]quinazolin-2-one] | -37 ± 8% | 2 mg/kg |  | 
25 µg/mL (≈ 124 µM) | 4 µg/mL (≈ 19.9 µM) | O=C1CCN2Cc3ccccc3N=C2N1 [Compound 19, 6-[H]-1,2,3,4-Tetrahydropyrimido[2,1-b]-quinazolin-2-one] | -32 ± 4% |  |  | 
7 µg/mL (≈ 31.6 µM) | 0.3 µg/mL (≈ 1.35 µM) | O=C1CN2Cc3cccc(Cl)c3N=C2N1 [Compound 5] | -10 ± 1% | 6 mg/kg |  | 
 |  | Cc1cccc2c1N=C1NC(=O)CCN1C2 [Compound 24] | -19% |  |  | 
 |  | Cc1ccc2c(c1)C(C)N1CC(=O)NC1=N2 (stereo not drawn) [Compound 51, 5,7-Dimethyl-1,2,3,5-tetrahydroimidazo-[2,1-b]quinazolin-2-one] | -34% |  |  | 
6 µg/mL (≈ 25.9 µM) | 1.5 µg/mL (≈ 6.49 µM) | COc1ccc2c(c1)CN1CCC(=O)NC1=N2 [Compound 26] | -19 ± 6% | > 10 mg/kg |  | 
 |  | Cc1cccc2c1C(C)N1CC(=O)NC1=N2 (stereo not drawn) [Compound 50, 5,6-dimethyl-1,2,3,5-tetrahydroimidazo[2,1-b]quinazolin-2-one] | -49% |  |  | 
0.5 µg/mL (≈ 2.3 µM) | 0.2 µg/mL (≈ 0.921 µM) | COc1cccc2c1CN1CC(=O)NC1=N2 [Compound 13, 6-methoxy-1,2,3,5-tetrahydroimidazo-[2,1-b]quinazolin-2-one] | -20 ± 14% | 4 mg/kg | 19% | 
3 µg/mL (≈ 13.9 µM) | 0.3 µg/mL (≈ 1.39 µM) | Cc1cccc2c1CN1CCC(=O)NC1=N2 [Compound 22] | -26 ± 9% | > 10 mg/kg |  | 
0.4 µg/mL (≈ 1.62 µM) |  | COc1ccc2c(c1OC)CN1CC(=O)NC1=N2 [Compound 16, 6,7-dimethoxy-1,2,3,5-tetrahydroimidazo[2,1-b]quinazolin-2-one] |  | 0.7 mg/kg |  | 
2 µg/mL (≈ 8.61 µM) | 0.2 µg/mL (≈ 0.861 µM) | O=C1CN2Cc3cc([N+](=O)[O-])ccc3N=C2N1 [Compound 8, 7-Nitro-1,2,3,5-tetrahydroimidazo-[2,1-b]quinazolin-2-one] | 5 ± 2% | > 10 mg/kg |  | 
16 µg/mL (≈ 74.3 µM) | 2 µg/mL (≈ 9.29 µM) | Cc1ccc2c(c1)CN1CCC(=O)NC1=N2 [Compound 23] | -7 ± 2% |  |  | 
3 µg/mL (≈ 10.7 µM) | 1.5 µg/mL (≈ 5.35 µM) | O=C1CCN2Cc3cc(Br)ccc3N=C2N1 [Compound 21, 8-Bromo-6-[H]-1,2,3,4-tetrahydropyrimido[2,1-b]quinazolin-2-one] |  | 9 mg/kg |  | Toxic
 | 32 µg/mL (≈ 122 µM) | COc1cc2c(cc1OC)N=C1NC(=O)CCN1C2 [Compound 28] | 7% |  |  | 
2 µg/mL (≈ 9.94 µM) | 7 µg/mL (≈ 34.8 µM) | CC1c2ccccc2N=C2NC(=O)CN21 (stereo not drawn) [Compound 29] | -28% | 35 mg/kg |  | 
6 µg/mL (≈ 29.2 µM) | 2 µg/mL (≈ 9.75 µM) | O=C1CN2Cc3ccc(F)cc3N=C2N1 [Compound 7] | -27 ± 3% | > 10 mg/kg |  | 
